Laboratory results published in US20240316079A1, “USE OF AKR1C3-ACTIVATED COMPOUND” (OBI PHARMA, INC., priority 2021, published 2024).
Like-named read-outs stand apart in the source and are kept apart here.

Experiments:
recombinant human AKR1C3 [1] = molecular target: T1, recombinant human AKR1C3 (Homo sapiens, UniProt P42330); assay: Kinetic analysis of AKR1C3 towards various substrates (NADPH absorbance 340 nm); assay type: biochemical; settings: substrate of AKR1C3, 25° C., triplicate
T1 construct: purchased Abcam (Cambridge, MA)
T1 sequence (P42330 1-323): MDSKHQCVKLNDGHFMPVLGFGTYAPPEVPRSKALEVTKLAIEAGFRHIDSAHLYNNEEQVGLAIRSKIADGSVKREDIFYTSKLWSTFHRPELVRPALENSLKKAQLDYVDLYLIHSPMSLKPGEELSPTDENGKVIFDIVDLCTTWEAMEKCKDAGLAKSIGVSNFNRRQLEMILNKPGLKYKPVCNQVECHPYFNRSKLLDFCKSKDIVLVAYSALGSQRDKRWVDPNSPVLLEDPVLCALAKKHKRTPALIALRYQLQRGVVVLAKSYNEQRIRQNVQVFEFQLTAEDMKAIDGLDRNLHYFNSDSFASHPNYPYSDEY
Protocol: The reaction was incubated at 25° C. and terminated at various time points by adding acetonitrile and methanol (at a ratio of 9 to 1) and subjected for LC-MS/MS analysis. For enzyme kinetic analysis, the activity was determined with a SpectraMax M2^e spectrophotometer (Molecular Devices, LLC, San Jose, CA) by measuring the decrease in absorbance of the NADPH at 340 nm (E=6270 M^−1 cm^−1). After the initiation of the reaction by addition of substrates, the reactions were monitored at 30 s intervals at 25° C. The non-substrate reaction rate was also monitored as background and its slope was used to determine the initial velocity of the reaction. The kinetic data reported were the average of triplicate measurements.

HLF = assay: In vitro proliferation assay, liver cancer cell line HLF; assay type: cell-based; settings: Homo sapiens, 96 hours of drug exposure, AKR1C3 protein Low, read-out: 3424 IC50
Protocol: (§1) IC50 was calculated as described above.

[2] = test system: HepG2 orthotopic xenograft; assay type: in vivo, mice; settings: for TGI: Day 34
Protocol: (§2) In vivo anti-tumor activity of 3424 was evaluated using GFP-expressing cancer cell lines in an orthotopic liver cancer model (HepG2) and a subcutaneous lung cancer model (H460) CDX models at AntiCancer, Inc (Beijing, China). Female athymic nude mice (6 weeks; BALB/c-nu, Beijing HFK Bioscience Co., Ltd., Beijing, China) were used in the studies. Each mouse was implanted with a HepG2-GFP tumor chunk (˜1 mm^3 in diameter) in the right lobe of the liver for tumor development or inoculated subcutaneously with H460-GFP tumor chunk (˜1 mm^3 in diameter). About 3-10 days later, whole mouse body scan was performed using FluorVivo Model-100 fluorescence imager (INDEC Biosystems, Inc., Los Altos, CA). Mice with similar fluorescent areas were selected and randomly grouped. Both cell lines expressed high level of AKR1C3. Prodrug 3424 was dosed intravenously (IV) at 1.25, 2.5 mg/kg or 5 mg/kg Q7D×2 for the HepG2 orthotopic model or at 0.625, 1.25 or 2.5 mg/kg for the H460 xenograft model with a regimen of Q7D×2, 1 week off, then Q7D×2 again. Sorafenib was used as the positive control in the HepG2 model and was dosed orally at 30 mg/kg with a regimen of QD×5×7 cycles. Taxol was used as the positive control in the H460 model and was administered at 15 mg/kg IV with a regimen of BIW×4. During the experiments, mice were observed daily and body weight was measured twice a week. Tumor burden was monitored twice a week either by caliper measurement (H460) or FluorVivo fluorescence imager (H460-GFP and HepG2-GFP).

[3] = test system: H460 subcutaneous xenograft; assay type: in vivo, mice; settings: 1 week off, Q7D × 2
Protocol: as §2

NCIH1755 = assay: In vitro proliferation assay, NSCLC cell line NCIH1755; assay type: cell-based; settings: Homo sapiens, NCI-H1755, 72 hours of drug exposure, read-out: 3424 IC50
Protocol: as §1

recombinant human AKR1C3 [4] = molecular target: T1, recombinant human AKR1C3; assay: AKR1C3-dependent activation of 3424 (2660 production, LC-MS/MS); assay type: biochemical; settings: incubation with AKR1C3, n = 3, mean ± SD
Protocol: The reaction was incubated at 25° C. and terminated at various time points by adding acetonitrile and methanol (at a ratio of 9 to 1) and subjected for LC-MS/MS analysis. For enzyme kinetic analysis, the activity was determined with a SpectraMax M2^e spectrophotometer (Molecular Devices, LLC, San Jose, CA) by measuring the decrease in absorbance of the NADPH at 340 nm (E=6270 M^−1 cm^−1). After the initiation of the reaction by addition of substrates, the reactions were monitored at 30 s intervals at 25° C. The non-substrate reaction rate was also monitored as background and its slope was used to determine the initial velocity of the reaction. The kinetic data reported were the average of triplicate measurements. For AKR1C3-mediated 3424 metabolism, LC/MS/MS was performed using a Sciex API-4000 Qtrap (ABSciex, LLC, Framingham, MA) mass spectrometer coupled to an Agilent 1200 HPLC system (Agilent Technologies, Santa Clara, CA). […] The column oven temperature was 40° C. and the sample injection volume was 2 μL. The mass spectra were obtained in positive MRM mode. In positive ion mode, the ion spray voltage was set at 4500 V, declustering potential at 80 V, collision energy at 20 V, source temperature at 350° C., curtain gas at 10 psi and the source gas 1 and 2 both at 60 psi. […] For 2660 analysis, normal phase liquid chromatographic separation was performed with Waters Atlantis HILIC Silica column (2.1 mm×100 mm, 3 μm, Waters Corp., Milford, MA) in a total run time of 9 min using a flow rate of 0.3 mL/min. The mobile phase A consisted of 1 mM ammonium formate in water and mobile phase B using ACN. […] The column oven temperature was 40° C. and the sample injection volume was 2 μL. The mass spectra were obtained in negative MRM mode. In negative ion mode, the ion spray voltage was set at −4500 V, declustering potential at −60 V, collision energy at −30 V, source temperature at 350° C., curtain gas at 10 psi and the source gas 1 and 2 both at 60 psi. […] The peak area ratio for each MRM transition (peak area of analyte/peak area of analyte-IS) of calibration standards and samples were used for quantitative analysis using Analyst 1.6 software (ABSciex, Framingham, MA).

recombinant human AKR1C4 = molecular target: T2, recombinant human AKR1C4 (Homo sapiens, UniProt P17516); assay: Incubation of 3424 with AKR1C4 (2660 production, LC-MS/MS); assay type: biochemical
T2 construct: purchased Sigma
T2 sequence (P17516 whole entry): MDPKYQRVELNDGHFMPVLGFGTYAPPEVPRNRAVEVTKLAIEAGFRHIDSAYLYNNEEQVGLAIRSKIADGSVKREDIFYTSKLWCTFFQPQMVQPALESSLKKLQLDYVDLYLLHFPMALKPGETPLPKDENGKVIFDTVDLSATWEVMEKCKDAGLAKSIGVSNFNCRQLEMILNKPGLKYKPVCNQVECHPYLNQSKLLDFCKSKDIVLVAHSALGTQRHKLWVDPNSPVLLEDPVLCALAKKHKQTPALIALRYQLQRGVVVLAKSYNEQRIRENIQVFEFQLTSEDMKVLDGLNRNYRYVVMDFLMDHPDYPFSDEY

C[C@H](OP(=O)(N1CC1)N1CC1)c1ccc([N+](=O)[O-])c(Oc2cccc(C(=O)N(C)C)c2)c1 [Compound 3424, (S)-1-(3-(3-N,N-dimethylaminocarbonyl)phenoxyl-4-mtrophenyl)-1-ethyl-N,N′-bis(ethylene)phosphoramidate]
Kcat (recombinant human AKR1C3 [1]): 0.0107 ± 0.00017 s⁻¹
Km (recombinant human AKR1C3 [1]; read-out: Km): 12.6 ± 0.28 µM
IC50 (HLF): > 1000 nM
TGI ([2]; 3424 1.25 mg/kg i.v. Q7D × 2): 52.4%
complete regression rate ([2]; 3424 2.5 mg/kg i.v. Q7D × 2): 80%
TGI ([2]; 3424 2.5 mg/kg i.v. Q7D × 2): 91.5%
complete regression rate ([2]; 3424 5 mg/kg i.v. Q7D × 2): 100%
TGI ([2]; 3424 5 mg/kg i.v. Q7D × 2): 101.2%
body weight loss ([2]; mouse, in vivo): no body weight loss
TGI ([3]; 3424 0.625 mg/kg i.v. Q7D × 2): 60.2%
TGI ([3]; 3424 1.25 mg/kg i.v. Q7D × 2): 67.2%
TGI ([3]; 3424 2.5 mg/kg i.v. Q7D × 2, 2.5 mg/kg): 88%
IC50 (NCIH1755): 8.2 nM
2660 Concentration (recombinant human AKR1C3 [4]; 3424 concentration 10 μM): 10.71 ± 0.53 µM
2660 Concentration (recombinant human AKR1C3 [4]; 3424 concentration 20 μM): 14.77 ± 1.44 µM
2660 Concentration (recombinant human AKR1C3 [4]; 3424 concentration 30 μM): 33.96 ± 1.90 µM
2660 Concentration (recombinant human AKR1C3 [4]; 3424 concentration 40 μM): 34.30 ± 6.63 µM
2660 Concentration (recombinant human AKR1C3 [4]; 3424 concentration 50 μM): 34.59 ± 7.44 µM
metabolism by AKR1C4 (recombinant human AKR1C4): not metabolized
2660 Concentration (recombinant human AKR1C4; 3424 concentration 50 μM, incubation with AKR1C4, BQL: below quantification limit (0.25 ng/mL)): BQL
